Assay results taken from patent US20250339415A1, “DISULFIDE COMPOUNDS AS MEDICAMENTS” (CYTACOAT AB, priority 2021, published 2025).
Read-outs that look alike come from different tables or passages of the source.

Assays:
Assay type in all cases: cell-based
[1] = tested on: Candida albicans; assay: Minimum inhibitory concentration (MIC), visible growth, YPD broth; settings: for MIC: Candida albicans
Protocol: (§1) • 1. Using a sterile inoculating loop, transfer bacteria/Candida albicans from frozen stock culture and streak them on a fresh LA plate. • 2. Incubate the plate at 37° C. overnight (o/n) (18-24 h).
(§2) • 1. Prepare bacterial culture by adding 20 ml Mueller Hinton broth (*) to a 250-ml Erlenmeyer flask with sidearm. • 2. Using a sterile inoculating loop, pick approximately 10 colonies from the o/n bacterial culture and transfer bacteria to the flask. • 3. Incubate the E-flask with bacteria on a rotating shaker at 37° C. until OD590=0.40. This OD should equal an approximate bacterial count of 1×10^8 cfu/ml (**) • This is measured using a colorimeter (or spectrophotometer). Set reference and press R (=reference) first, then measure the bacterial culture by pressing T (=test). • 4. At OD590 0.40, serially dilute the bacterial suspension 1:10 000 in Mueller Hinton broth to obtain a bacterial target concentration of 1×10^4 cfu/ml. Determine the initial inoculation by serially diluting 0.1 ml in 0.9 ml blanks of sterile PBS and plating 0.1 ml aliquots to LA plates, preferably. • 5. Different concentrations of the tested compound are prepared in 0.6-0.8 ml of the final dilution of bacterial suspension and placed in 2-ml test tubes. • 6. Incubate test tubes in an orbital shaker incubator at 37° C. for 24 h.
(§3) • 7. Analyze visible growth, i.e. “Foggy” or “Clear”. MIC is being defined as the interval between the highest “Foggy” and the lowest “Clear” concentration of the compound.
(*) When testing Candida albicans, Yeast extract Peptone Dextrose (YPD) broth is being used.
(**) For Candida albicans it is equal to 1×10^7
Different concentrations of PDEA were also prepared in Yeast extract Peptone Dextrose (YPD) broth. Candida albicans were inoculated to a concentration of 20 000 CFU/ml and incubated at 37° C. for 24 hours. Readouts were “Clear” and “Foggy”.
Different concentrations of the quaternary ammonium PDEA (Example 2) were also prepared in Yeast extract Peptone Dextrose (YPD) broth. Candida albicans were inoculated to a concentration of 20 000 CFU/ml and incubated at 37° C. for 24 hours. Readouts were “Clear” and “Foggy”.
Different concentrations of the Para position-PDEA” is (S)-4-pyridylthio cysteamine were also prepared in Yeast extract Peptone Dextrose (YPD) broth. Candida albicans were inoculated to a concentration of 20 000 CFU/ml and incubated at 37° C. for 24 hours. Readouts were “Clear” and “Foggy”.
Different concentrations of “Carboxylic acid PDEA” is 3-(2-Pyridyldithio)propanoic acid (CAS: 68617-64-1) were also prepared in Yeast extract Peptone Dextrose (YPD) broth. Candida albicans were inoculated to a concentration of 20 000 CFU/ml and incubated at 37° C. for 24 hours. Readouts were “Clear” and “Foggy”.

[2] = tested on: Staphylococcus epidermidis Se19 (Clinical Isolate, Jan Ingemar Falk); assay: Minimum inhibitory concentration (MIC), visible growth; settings: for MIC: Staphylococcus epidermidis
Protocol: as §1, §2, §3
(§4) Different concentrations of PDEA (Example 1) in Mueller Hinton medium were prepared. Bacteria were inoculated to a concentration of 20 000 CFU/ml and incubated at 37° C. for 24 hours. Minimum inhibitory concentrations (MICs) were determined by analyzing visible growth, i.e., readouts were “Clear” and “Foggy”.
(§5) Different concentrations of the quaternary ammonium PDEA (Example 2) in Mueller Hinton medium were prepared. Bacteria were inoculated to a concentration of 20 000 CFU/ml and incubated at 37° C. for 24 hours. Minimum inhibitory concentrations (MICs) were determined by analyzing visible growth, i.e., readouts were “Clear” and “Foggy”.
(§6) Different concentrations of this compound in Mueller Hinton medium were prepared. Bacteria were inoculated to a concentration of 20 000 CFU/ml and incubated at 37° C. for 24 hours. Minimum inhibitory concentrations (MICs) were determined by analyzing visible growth, i.e., readouts were “Clear” and “Foggy”.
(§7) Different concentrations of this compound were prepared in Mueller Hinton broth. Bacteria were inoculated to a concentration of 20 000 CFU/ml and incubated at 37° C. for 24 hours. Minimum inhibitory concentrations (MICs) were determined by analyzing visible growth, i.e., readouts were “Clear” and “Foggy”.

[3] = tested on: Enterococcus faecalis #28 (KI, Clinical Isolate); assay: as above; settings: for MIC: Enterococcus faecalis
Protocol: as §1, §2, §3, §4, §5, §6, §7

[4] = tested on: Enterococcus faecium #11 (KI, Clinical Isolate); assay: as above; settings: for MIC: Enterococcus faecium
Protocol: as §1, §2, §3, §4, §5, §6, §7

[5] = tested on: Escherichia coli CFT073; assay: as above; settings: for MIC: Escherichia coli
Protocol: as §1, §2, §3, §4, §5, §6, §7

[6] = tested on: Staphylococcus aureus B5381; assay: as above; settings: for MIC: Staphylococcus aureus
Protocol: as §1, §2, §3, §4, §5, §6, §7

[7] = tested on: Klebsiella pneumoniae AO15200; assay: as above; settings: for MIC: Klebsiella pneumoniae
Protocol: as §1, §2, §3, §4, §5, §6, §7

[8] = tested on: Pseudomonas aeruginosa PA02; assay: as above; settings: for MIC: Pseudomonas aeruginosa
Protocol: as §1, §2, §3, §4, §5, §6, §7

[9] = Mueller Hinton, 20 000 CFU/ml, 37° C., 24 hours, read-out: MIC

C[N+](C)(C)CCSSc1ccccn1 [Example 2, 2-(2-Pyridyldisulanyl)ethan-(trimethylammonium) chloride]
550 to 1120 µM: MIC ([6]; B5381, 24 h) | MIC ([8]; PA02, 24 h)
55 to 110 µM: MIC ([2]; 24 h) | MIC ([4]; 24 h)
Clear: visible growth readout ([1]; 0.55 mM) | visible growth readout ([1]; 1.1 mM) | visible growth readout ([1]; 2.2 mM) | visible growth readout ([1]; 4.4 mM) | visible growth readout ([2]; 0.11 mM) | visible growth readout ([2]; 0.225 mM) | visible growth readout ([3]; 0.225 mM) | visible growth readout ([3]; 0.55 mM) | visible growth readout ([3]; 1.125 mM) | visible growth readout ([4]; 0.11 mM) | visible growth readout ([4]; 0.225 mM) | visible growth readout ([5]; 0.55 mM) | visible growth readout ([5]; 1.125 mM) | visible growth readout ([6]; 1.125 mM) | visible growth readout ([7]; 0.55 mM) | visible growth readout ([7]; 1.125 mM) | visible growth readout ([8]; 1.125 mM)
225 to 550 µM: MIC ([1]; 24 h) | MIC ([5]; CFT073, 24 h) | MIC ([7]; AO15200, 24 h)
110 to 225 µM: MIC ([3]; 24 h)
Foggy: visible growth readout ([1]; 0.11 mM) | visible growth readout ([1]; 0.225 mM) | visible growth readout ([2]; 0.025 mM) | visible growth readout ([2]; 0.055 mM) | visible growth readout ([3]; 0.11 mM) | visible growth readout ([4]; 0.025 mM) | visible growth readout ([4]; 0.055 mM) | visible growth readout ([5]; 0.11 mM) | visible growth readout ([5]; 0.225 mM) | visible growth readout ([6]; 0.11 mM) | visible growth readout ([6]; 0.225 mM) | visible growth readout ([6]; 0.55 mM) | visible growth readout ([7]; 0.11 mM) | visible growth readout ([7]; 0.225 mM) | visible growth readout ([8]; 0.11 mM) | visible growth readout ([8]; 0.225 mM) | visible growth readout ([8]; 0.55 mM)

NCCSSc1ccncc1 [Example 3, (S)-4-pyridylthio cysteamine]
100 to 200 µM: MIC [2, 9] | MIC [4, 9]
200 to 400 µM: MIC [3, 9] | MIC ([5]; CFT073, Mueller Hinton, 20 000 CFU/ml, 37° C., 24 hours, read-out: MIC) | MIC ([6]; B5381, Mueller Hinton, 20 000 CFU/ml, 37° C., 24 hours, read-out: MIC) | MIC ([7]; AO15200, Mueller Hinton, 20 000 CFU/ml, 37° C., 24 hours, read-out: MIC)
Foggy: visible growth readout ([1]; 0.01 mM) | visible growth readout ([1]; 0.05 mM) | visible growth readout ([1]; 0.1 mM) | visible growth readout ([1]; 0.2 mM) | visible growth readout ([1]; 0.4 mM) | visible growth readout ([1]; 0.8 mM) | visible growth readout ([1]; 1.6 mM) | visible growth readout ([2]; 0.01 mM) | visible growth readout ([2]; 0.05 mM) | visible growth readout ([2]; 0.1 mM) | visible growth readout ([3]; 0.01 mM) | visible growth readout ([3]; 0.05 mM) | visible growth readout ([3]; 0.1 mM) | visible growth readout ([3]; 0.2 mM) | visible growth readout ([4]; 0.01 mM) | visible growth readout ([4]; 0.05 mM) | visible growth readout ([4]; 0.1 mM) | visible growth readout ([5]; 0.01 mM) | visible growth readout ([5]; 0.05 mM) | visible growth readout ([5]; 0.1 mM) | visible growth readout ([5]; 0.2 mM) | visible growth readout ([6]; 0.01 mM) | visible growth readout ([6]; 0.05 mM) | visible growth readout ([6]; 0.1 mM) | visible growth readout ([6]; 0.2 mM) | visible growth readout ([7]; 0.01 mM) | visible growth readout ([7]; 0.05 mM) | visible growth readout ([7]; 0.1 mM) | visible growth readout ([7]; 0.2 mM) | visible growth readout ([8]; 0.01 mM) | visible growth readout ([8]; 0.05 mM) | visible growth readout ([8]; 0.1 mM) | visible growth readout ([8]; 0.2 mM) | visible growth readout ([8]; 0.4 mM)
Clear: visible growth readout ([1]; 3.2 mM) | visible growth readout ([2]; 0.2 mM) | visible growth readout ([2]; 0.4 mM) | visible growth readout ([2]; 0.8 mM) | visible growth readout ([2]; 1.6 mM) | visible growth readout ([2]; 3.2 mM) | visible growth readout ([3]; 0.4 mM) | visible growth readout ([3]; 0.8 mM) | visible growth readout ([3]; 1.6 mM) | visible growth readout ([3]; 3.2 mM) | visible growth readout ([4]; 0.2 mM) | visible growth readout ([4]; 0.4 mM) | visible growth readout ([4]; 0.8 mM) | visible growth readout ([4]; 1.6 mM) | visible growth readout ([4]; 3.2 mM) | visible growth readout ([5]; 0.4 mM) | visible growth readout ([5]; 0.8 mM) | visible growth readout ([5]; 1.6 mM) | visible growth readout ([5]; 3.2 mM) | visible growth readout ([6]; 0.4 mM) | visible growth readout ([6]; 0.8 mM) | visible growth readout ([6]; 1.6 mM) | visible growth readout ([6]; 3.2 mM) | visible growth readout ([7]; 0.4 mM) | visible growth readout ([7]; 0.8 mM) | visible growth readout ([7]; 1.6 mM) | visible growth readout ([7]; 3.2 mM) | visible growth readout ([8]; 0.8 mM) | visible growth readout ([8]; 1.6 mM) | visible growth readout ([8]; 3.2 mM)
1600 to 3200 µM: MIC ([1]; YPD broth, 20 000 CFU/ml, 37° C., 24 hours, read-out: MIC)
400 to 800 µM: MIC ([8]; PA02, Mueller Hinton, 20 000 CFU/ml, 37° C., 24 hours, read-out: MIC)
